The source of these data is patent US20250059141A1, “TLR MODULATOR AND USE THEREOF” (DUALITY BIOLOGICS (SUZHOU) CO., LTD., priority 2021, published 2025).

pEC50: −log10 of the molar value. Where two headings read alike, the source gives them in different places.

The target of test [1] is T1, hTLR7 (human Toll-like receptor 7) (Homo sapiens, UniProt Q9NYK1).
T1 construct: host or cells: HEK-Blue hTLR7 (HEK293-derived reporter cells)
T1 sequence (Q9NYK1 27-1049): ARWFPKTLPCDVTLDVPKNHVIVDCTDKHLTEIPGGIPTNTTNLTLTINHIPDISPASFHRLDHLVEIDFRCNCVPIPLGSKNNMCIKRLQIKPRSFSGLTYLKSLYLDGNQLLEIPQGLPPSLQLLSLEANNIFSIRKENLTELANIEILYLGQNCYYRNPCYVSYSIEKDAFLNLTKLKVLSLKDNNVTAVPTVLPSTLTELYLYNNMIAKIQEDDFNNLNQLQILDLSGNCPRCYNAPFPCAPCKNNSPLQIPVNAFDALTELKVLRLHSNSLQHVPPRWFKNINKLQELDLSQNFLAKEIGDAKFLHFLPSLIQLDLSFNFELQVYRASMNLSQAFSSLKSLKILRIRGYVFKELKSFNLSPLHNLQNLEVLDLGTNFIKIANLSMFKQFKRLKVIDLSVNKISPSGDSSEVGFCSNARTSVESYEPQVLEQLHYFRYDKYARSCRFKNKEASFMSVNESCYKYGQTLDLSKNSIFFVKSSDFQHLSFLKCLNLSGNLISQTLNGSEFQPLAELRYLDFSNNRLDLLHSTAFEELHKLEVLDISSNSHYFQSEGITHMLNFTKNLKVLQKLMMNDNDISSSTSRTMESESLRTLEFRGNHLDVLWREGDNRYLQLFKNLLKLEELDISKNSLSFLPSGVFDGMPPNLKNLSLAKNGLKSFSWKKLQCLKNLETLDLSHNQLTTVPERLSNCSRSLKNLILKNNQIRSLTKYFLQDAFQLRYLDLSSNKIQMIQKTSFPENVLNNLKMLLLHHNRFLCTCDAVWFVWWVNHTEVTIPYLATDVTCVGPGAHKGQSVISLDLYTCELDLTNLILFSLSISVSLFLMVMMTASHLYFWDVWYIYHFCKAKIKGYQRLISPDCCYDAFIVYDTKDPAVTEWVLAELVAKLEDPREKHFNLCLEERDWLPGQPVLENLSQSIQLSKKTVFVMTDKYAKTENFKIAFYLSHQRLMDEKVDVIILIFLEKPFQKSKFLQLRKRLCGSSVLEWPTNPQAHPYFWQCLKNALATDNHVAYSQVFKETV
Nature of the test: HEK-Blue hTLR7 reporter assay (QUANTI-Blue, OD650). It is filed as cell-based. To be noted: HEK-Blue hTLR7 cells, 24 h, read-out: Reporter assay TLR7 EC50.

Test [2] relates to IFN-α production in human PBMCs. As to the kind of experiment: Induction of IFN-α in human PBMCs (ELISA). To be noted: PBMC, 24 h, read-out: PBMC assay IFNa EC50. It is filed as cell-based. Here is the method:
In this example, the induction activity of the compounds of the present application on human PBMCs for TNF-α and IFN-α production was assessed in human PBMCs (human peripheral blood mononuclear cells). The human PBMCs were purchased from Shanghai Saily Biotechnology Co., Ltd. (Cat. No. XFB—HP100B). PBMC cells were treated with the compounds. The compounds of the present application are diluted in DMSO, for example, to about 15 mM. The reference compound was added to the plates in sequence after diluted to 5 mg/mL. The compounds were serially 3- or 4-fold diluted to 8 concentrations and added to plates in duplicate (Table 2-1 for serial 3-fold dilutions and Table 2-2 for serial 4-fold dilutions). For the negative control wells, DMSO was added at 0.4 μL/well, and a 5 mg/mL reference compound solution was added to the positive control wells at 0.4 μL/well. The final concentration of DMSO was 0.2%. Frozen human PBMCs in cryopreservation tubes were quickly thawed in a 37° C. water bath and transferred into 50-mL centrifuge tubes. Prewarmed RPMI1640 medium was gradually added and the mixture was well mixed and centrifuged for 15 min before the supernatant was discarded. The cells were resuspended in a culture medium and counted. The cell suspension was adjusted to 2.5×10^6 cells/mL with the culture medium. Diluted cells were added at 200 μL/500,000 cells/well in 96-well plates containing the compounds. The cell plates were incubated at 37° C./5% CO2 for 24 h.
The plate was washed 4 times, then the detection antibody was added. […] The plate was washed 4 additional times, then the enzyme was added. […] Termination of reaction: The reaction was terminated by quickly adding the stop solution at 100 μL/well. Plate reading: The reading at wavelength 450 nm was detected by an M2e instrument within 10 min after the termination.
Compound activity data analysis: The OD450 values were converted to TNF-α and IFN-α contents by GraphPad Prism software analysis and fitted to give dose-response curves of the compounds. The EC50 values for the compounds were calculated, where the Emax values are the maximal values for TNF-α and IFN-α.
In general terms: ELISA stands for enzyme-linked immunosorbent assay.

[3] abbreviates: serial 4-fold dilutions, class symbols.

In general, pEC50 refers to the negative decadic logarithm of the EC50, by convention in mol/L. In the case of `CCCN(OCc1ccc(N)cc1)C(=O)C1=Cc2ccc(-c3cncc(CO)c3)cc2N=C(N)C1` [Compound 15], the pEC50 was 6.15 in test [1] and 8.52 in test [2] (serial 3-fold dilutions).

On to `CCCN(OCc1ccc(N)cc1)C(=O)C1=Cc2ccc(C(=O)Nc3cncc(OC)c3)cc2N=C(N)C1` [Compound 85], for which the pEC50 in test [1] (class symbols) is less than 6.00; in test [2] (setting [3]) it was 6.30 to 7.30.

Turning to `CCCN(OCc1ccc(N)cc1)C(=O)C1=Cc2ccc(-c3cncc(S(=O)(=O)N4CC[C@H](O)C4)c3)cc2N=C(N)C1` [Compound 72], the pEC50 in test [1] (class symbols) was 6.00 to 7.00; in test [2] (setting [3]) it was 7.30 to 8.00.

Turning to `CCCN(OCc1ccc(N)cc1)C(=O)C1=Cc2ccc(-c3cccc(S(=O)(=O)N4CCNCC4)c3)cc2N=C(N)C1` [Compound 67], the pEC50 in test [1] (class symbols) was 6.00 to 7.00; in test [2] (setting [3]), less than 6.30.

With `CCCN(OCc1ccc(N)cc1)C(=O)C1=Cc2ccc(C(=O)Nc3ncco3)cc2N=C(N)C1` [Compound 87], the values for the pEC50 in test [1] (class symbols) and in test [2] (setting [3]) were less than 6.00 and 6.30 to 7.30, respectively.
